Tests used:
Experiment in all cases: relative viability (nuclei count vs DMSO), 5 days (fraction); higher = more cells survive
[1] = compound: COC1=CC(c2cc3ccccc3[nH]2)=N/C1=C\c1[nH]c(C)cc1C [Obatoclax] + Cc1cc(Nc2cc(N3CCN(C)CC3)nc(Sc3ccc(NC(=O)C4CC4)cc3)n2)n[nH]1 [Tozasertib] (partner 0.1 µM)
In short: (§1)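 Values are medians from duplicate plates. Each reflects relative viability, defined as the nuclei count of treated wells over that of vehicle wells. Lung cancer cell lines in 1536-well plates were pin-tool dosed one day after seeding with one drug alone or with a fixed anchor-drug dose plus five library-drug doses (not always all listed) in √10 steps, then fixed, stained and imaged at 4× after 5 days.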

[2] = compound: COC1=CC(c2cc3ccccc3[nH]2)=N/C1=C\c1[nH]c(C)cc1C [Obatoclax] + CS(=O)(=O)CCNCc1ccc(-c2ccc3ncnc(Nc4ccc(OCc5cccc(F)c5)c(Cl)c4)c3c2)o1 [Lapatinib] (partner 2 µM)
In short: as §1

[3] = compound: COC1=CC(c2cc3ccccc3[nH]2)=N/C1=C\c1[nH]c(C)cc1C [Obatoclax] + CS(=O)(=O)N1CCN(Cc2cc3nc(-c4cccc5[nH]ncc45)nc(N4CCOCC4)c3s2)CC1 [Pictilisib] (partner 1 µM)
In short: as §1

[4] = compound: COC1=CC(c2cc3ccccc3[nH]2)=N/C1=C\c1[nH]c(C)cc1C [Obatoclax] + N=C(N)NC(=N)NCCc1ccccc1 [Phenformin] (partner 250 µM)
In short: as §1

Cell Line	relative viability ([1]; first compound 0.01 µM)	relative viability ([1]; first compound 0.03162 µM)	relative viability ([1]; first compound 0.1 µM)	relative viability ([1]; first compound 0.3162 µM)	relative viability ([1]; first compound 1 µM)	relative viability ([2]; first compound 0.01 µM)	relative viability ([2]; first compound 0.03162 µM)	relative viability ([2]; first compound 0.1 µM)	relative viability ([2]; first compound 0.3162 µM)	relative viability ([2]; first compound 1 µM)	relative viability ([3]; first compound 0.01 µM)	relative viability ([3]; first compound 0.03162 µM)	relative viability ([3]; first compound 0.1 µM)	relative viability ([3]; first compound 0.3162 µM)	relative viability ([3]; first compound 1 µM)	relative viability ([4]; first compound 0.01 µM)	relative viability ([4]; first compound 0.03162 µM)	relative viability ([4]; first compound 0.1 µM)	relative viability ([4]; first compound 0.3162 µM)	relative viability ([4]; first compound 1 µM)
SK-MES-1	0.859	0.999	0.787	0.344	0.285	0.457	0.458	0.509	0.519	0.519	0.393	0.379	0.392	0.402	0.268	0.642	0.704	0.558	0.361	0.273
NCI-H2085	0.751	0.826	0.895	0.776	0.645	0.808	0.695	0.686	0.533	0.394	0.446	0.433	0.483	0.338	0.242	0.707	0.668	0.662	0.581	0.317
NCI-H2087	0.248	0.239	0.229	0.206	0.161	0.954	0.901	0.776	0.623	0.304	0.908	0.925	0.825	0.334	0.206	0.423	0.372	0.513	0.344	0.193
HCC-366	0.1	0.117	0.134	0.0528	0.0652	1.02	1.05	0.921	0.636	0.379	0.136	0.151	0.172	0.159	0.12	0.581	0.565	0.657	0.628	0.478
NCI-H2126	0.908	0.827	0.87	0.832	0.819	0.736	0.733	0.809	0.739	0.802	0.524	0.464	0.554	0.481	0.482	0.544	0.517	0.504	0.526	0.454
SK-LU-1	0.346	0.354	0.342	0.184	0.154	0.75	0.87	0.61	0.637	0.621	0.616	0.559	0.46	0.364	0.256	0.587	0.507	0.414	0.246	0.244
HCC-78	0.338	0.404	0.664	0.399	0.344	0.937	0.64		0.579	0.844	0.179	0.207		0.158	0.2	0.8	0.634	0.868	0.642	0.67
LCLC-97TM1	0.268	0.255	0.232	0.215	0.21	0.835	0.936	1.3	0.906	1.21	0.18	0.201	0.325	0.139	0.154	0.417	0.408	0.458	0.485	0.421
NCI-H838	0.292	0.253	0.292	0.25	0.221	1.07	1.17	0.465	0.62	0.377	0.52	0.508	0.421	0.35	0.247	0.567	0.622	0.362	0.46	0.322
NCI-H520	0.42	0.434	0.492	0.402	0.295	0.805	0.821	0.879	0.493	0.22	0.3	0.336	0.318	0.268	0.245	0.677	0.562	0.589	0.532	0.455
NCI-H2347	0.504	0.684		0.549	0.423	0.933	0.901	0.542	0.89	0.857	0.904	0.648	0.695	0.489	0.831	0.496	0.366		0.506	0.517
NCI-H358	0.105	0.117	0.0958	0.0729	0.065	0.482	0.33	0.598	0.336	0.208	0.322	0.297	0.261	0.288	0.23	0.309	0.365	0.432	0.339	0.217
NCI-H2405	0.789	0.905		0.833	0.882	1.05	1.26		1.08	1.13	0.508	0.461		0.497	0.392	0.411	0.394		0.402	0.411
HCC-15	0.371	0.35	0.463	0.456	0.287	0.854	0.801	0.747	0.723	0.581	0.737	0.658	0.744	0.686	0.471	0.486	0.432	0.348	0.438	0.327

— the supplement of paper PMC10307832
